Experimental data: paper PMC6835763, “Influence of Short Cationic Lipopeptides with Fatty Acids of Different Chain Lengths on Bacterial Biofilms Formed on Polystyrene and Hydrogel Surfaces” (Pharmaceutics, 2019)
Values after ≈ are worked out from the molar mass of the structure shown. Values joined by “and” are separate entries in the source; they are usually repeats but may differ in a detail not shown here. Equal values may be shown once. Read-outs that look alike come from different tables or passages of the source. Where a SMILES comes first, the peptide text is derived from it. Bridges are numbered along the chain shown (N, C = ends). Roman numbers before positions name the chains, in order. The star is where a group is joined. Palmitoyl = CCCCCCCCCCCCCCCC(=O)*; Myristoyl = CCCCCCCCCCCCCC(=O)*; Lauroyl = CCCCCCCCCCCC(=O)*

What was measured:
[1] = test system: Staphylococcus epidermidis ATCC 14990; format: cell-based
Method: (§1) The reference strains of gram-positive and gram-negative bacteria (Table 2) were obtained from the Polish Collection of Microorganisms (Polish Academy of Science, Wroclaw, Poland). The microorganisms were cultured in Muller Hinton Broth II (MHB II, Biocorp, Warsaw, Poland), overnight, at 37 °C. The MICs of synthetic lipopeptides and conventional antimicrobials were determined using the broth microdilution method according to the Clinical and Laboratory Standard Institute (CLSI) guidelines on reference strains. […] The PS were incubated under aerobic conditions at 37 °C for 18 h. The MIC (μg/mL) was assumed as the lowest concentration of the compound that inhibited the growth of the microorganisms. All experiments were performed in triplicate and included the growth and sterility controls.

[2] = test system: Pseudomonas aeruginosa ATCC 9027; format: cell-based
Method: as §1

[3] = test system: Proteus mirabilis PCM 543; format: cell-based
Method: as §1

[4] = test system: Enterococcus faecalis ATCC 29212; format: cell-based
Method: as §1

[5] = test system: Staphylococcus aureus ATCC 25923; format: cell-based
Method: as §1

[6] = test system: Escherichia coli ATCC 25922; format: cell-based
Method: as §1

[7] = RP-HPLC retention to evaluate the hydrophobicity of lipopeptides; format: physicochemical; conditions: chromatographic, Luna C18(2) 3.0 × 100 mm, 5.0 µm, linear 20–80% acetonitrile in water over 10 min, 0.1% formic acid, 0.5 mL/min, UV 214 nm, used to evaluate hydrophobicity
Method: The crude peptide was lyophilized and subsequently purified by RP-HPLC. The purifications were carried out on a Phenomenex Gemini-NX C18 column (21.20 × 100 mm, 5.0 µm particle size, and 110 Å pore size). Acetonitrile and water, both containing 0.1% of TFA, were used as the mobile phase. UV detection at 214 nm was used. The crude peptides were eluted with a linear 20–80% acetonitrile gradient in deionized water over 60 min at a flow rate of 10.0 mL/min. The purity and identity of the peptides were confirmed with LC-MS analysis. A Waters Alliance e2695 RP-HPLC system (Waters, Milford, MA, USA) with Waters 2998 PDA (Waters, Milford, MA, USA) and Acquity QDA detectors (Empower®3 software, Database Version 7.21.00.00) was used. All analyses were carried out on a Phenomenex, Luna C18(2) column (3.0 × 100 mm, 5.0 µm particle size, 100 Å pore size). The samples were analyzed with a linear 20–80% acetonitrile gradient in deionized water over 10 min at a flow rate of 0.5 mL/min with UV detection at 214 nm. Both eluents contained 0.1% (v/v) of formic acid. The pure fractions (>95%, by HPLC analysis) were collected and lyophilized. The retention time and percentage of ACN (%) at which each peptide was eluted are included in Table 1 to evaluate the hydrophobicity of lipopeptides. The identity of all compounds was confirmed using mass spectrometry (Waters Alliance e2695 system with Acquity QDA detector, Waters, Milford, MA, USA) with electrospray ionization in positive ion mode (ESI-MS). In this mode, a proton is attached to basic moieties (amine groups, guanidine groups). The theoretical mass of the peptide was calculated and then expected ions (m/z—mass to charge ratio) were compared to measured m/z. The results are presented in Table 1, and mass spectra are presented in the Supplementary Materials.

[8] = test system: Staphylococcus epidermidis ATCC 14990; assay: MBFIC assay (biofilm formation inhibition, resazurin); format: cell-based; conditions: for MBFIC S. epidermidis, CL: contact lenses (CL, Etafilcon A hydrogel) in 24-well plates; for MBFIC S. epidermidis, CL / MBFIC S. epidermidis, PS: ca. 5 × 10^8 CFU/mL in MHB II, 37 °C, 18 h, resazurin, visual, triplicate; for MBFIC S. epidermidis, PS: polystyrene plates (PS), 96-well; for concentrations inhibiting formation of SE biofilm (MBFIC range): range over PS and CL
Method: (§2) To determine the inhibitory effect of antimicrobials on the formation of biofilm on hydrophobic surfaces, the bacterial suspensions of strains (initial inoculum of ca. 5 × 10^8 CFU/mL in MHB II medium supplemented with antimicrobials) were cultured on 96-well PS at 37 °C for 18 h under aerobic conditions. After incubation, the suspensions were aspirated, and the wells were rinsed three times with sterile phosphate buffer PBS (AppliChem, Darmstadt, Germany) in order to remove the planktonic cells. Resazurin (final concentration per sample = 0.005%) was applied as a cell viability reagent for reading the results. In contact with the living cells, the dye is metabolized by bacterial dehydrogenases, resulting in a reduction of blue resazurin to pink resorufin. All assays were performed in triplicate and included the growth controls (positive controls: bacterial suspensions without antimicrobials) and the sterility controls (negative controls: a sterile MBH medium). After 1h of incubation, a visual evaluation of results was made. […] In a preliminary study, it was established that the application of lipopeptides at a concentration found active from visual evaluation caused the reduction of bacterial metabolism to approximately 10% (or less) of the positive control once the results were evaluated with a spectrophotometer. After 1 h of incubation with the dye, absorbance was measured at 570 and 600 nm using a microplate reader (Thermo Fisher Scientific, Waltham, MA, USA). The metabolic activity of bacteria in the samples was measured according to the formula presented in the previous paper.
(§3) The MBFIC assay with CL was applied in order to access the influence of lipopeptides on the biofilm formation on hydrogel surfaces. The entire sterile CL (1-Day Acuvue Moist, containing Etafilcon A., purchased from Johnson & Johnson (Vision Care, Jacksonsville, FL, USA), were placed in 24-well PS (Orange Scientific, Braine-l’ Alleud, Belgium) and the MBFICs were determined according to the above protocol.

[9] = test system: Pseudomonas aeruginosa ATCC 9027; assay: as above; format: cell-based; conditions: ca. 5 × 10^8 CFU/mL in MHB II, 37 °C, 18 h, visual, triplicate; for MBFIC P. aeruginosa, CL: contact lenses (CL, Etafilcon A hydrogel) in 24-well plates; for MBFIC P. aeruginosa, PS: polystyrene plates (PS), 96-well
Method: as §2, §3

[10] = test system: Proteus mirabilis PCM 543; assay: as above; format: cell-based; conditions: ca. 5 × 10^8 CFU/mL in MHB II, 37 °C, 18 h, visual, triplicate; for MBFIC P. mirabilis, CL: contact lenses (CL, Etafilcon A hydrogel) in 24-well plates; for MBFIC P. mirabilis, PS: polystyrene plates (PS), 96-well
Method: as §2, §3

[11] = test system: Enterococcus faecalis ATCC 29212; assay: as above; format: cell-based; conditions: ca. 5 × 10^8 CFU/mL in MHB II, 37 °C, 18 h, visual, triplicate; for MBFIC E. faecalis, CL: contact lenses (CL, Etafilcon A hydrogel) in 24-well plates; for MBFIC E. faecalis, PS: polystyrene plates (PS), 96-well
Method: as §2, §3

[12] = test system: Staphylococcus aureus ATCC 25923; assay: as above; format: cell-based; conditions: for MBFIC S. aureus, CL: contact lenses (CL, Etafilcon A hydrogel) in 24-well plates; for MBFIC S. aureus, CL / MBFIC S. aureus, PS: ca. 5 × 10^8 CFU/mL in MHB II, 37 °C, 18 h, resazurin, visual, triplicate; for MBFIC S. aureus, PS: polystyrene plates (PS), 96-well
Method: as §2, §3

[13] = test system: Escherichia coli ATCC 25922; assay: as above; format: cell-based; conditions: ca. 5 × 10^8 CFU/mL in MHB II, 37 °C, 18 h, visual, triplicate; for MBFIC E. coli, CL: contact lenses (CL, Etafilcon A hydrogel) in 24-well plates; for MBFIC E. coli, PS: polystyrene plates (PS), 96-well
Method: as §2, §3

[14] = MHB II, ca. 5 × 10^6 CFU/mL, 96-well PS, 1–512 μg/mL, 37 °C, 18 h, triplicate

Compound | MIC S. epidermidis ([1]; ATCC 14990, 18 h) [µg/mL] | MIC P. aeruginosa ([2]; ATCC 9027, 18 h) [µg/mL] | MIC P. mirabilis ([3]; PCM 543, 18 h) [µg/mL] | MIC E. faecalis ([4]; ATCC 29212, 18 h) [µg/mL] | MIC S. aureus ([5]; ATCC 25923, 18 h) [µg/mL] | MIC E. coli ([6]; ATCC 25922, 18 h) [µg/mL] | % ACN at which the peptide was eluted [7] [%] | tR' (adjusted retention time) [7] [min] | MBFIC S. epidermidis, CL [8] | MBFIC S. epidermidis, PS [8] | MBFIC P. aeruginosa, CL [9] | MBFIC P. aeruginosa, PS [9] | MBFIC P. mirabilis, CL [10] | MBFIC P. mirabilis, PS [10] | MBFIC E. faecalis, CL [11] | MBFIC E. faecalis, PS [11] | MBFIC S. aureus, CL [12] | MBFIC S. aureus, PS [12] | MBFIC E. coli, CL [13] | MBFIC E. coli, PS [13] | further results
CCCCCCCCCCCCCC(=O)N[C@@H](CCCCN)C(=O)N[C@@H](CCCNC(=N)N)C(N)=O [Lipopeptide 4, C14-KR-NH2] (Myristoyl-Lys-Arg-NH2) | 4 (≈ 7.82 µM) | 128 (≈ 250 µM) | 512 (≈ 1000 µM) | 32 (≈ 62.5 µM) | 32 (≈ 62.5 µM) | 32 (≈ 62.5 µM) | 39.7 | 3.29 | 32/32 μg/mL | 32/32 μg/mL | 128 µg/mL | 256 µg/mL | 512/>512 μg/mL | 512/>512 μg/mL | 64 µg/mL | 128 µg/mL | 2 µg/mL | 16 µg/mL | 128/128 μg/mL | 128/128 μg/mL | concentrations inhibiting formation of SA biofilm (MBFIC range) ([12]; range over PS and CL): 2 to 16 µg/mL
(C10)2-KKKK-NH2 [Lipopeptide 9] | – | – | – | – | – | – | 39.6 | 3.27 | 16 µg/mL | 8 µg/mL | 64 μg/mL and 64/64 μg/mL | 64 μg/mL and 64/64 μg/mL | 512/512 μg/mL | 512/512 μg/mL | 64/64 μg/mL | 64/64 μg/mL | 16 µg/mL | 8 µg/mL | 64 µg/mL | 128 µg/mL | MIC S. epidermidis [1, 14]: 2 µg/mL; MIC P. aeruginosa [2, 14]: 16 µg/mL; MIC P. mirabilis [3, 14]: 512 µg/mL; MIC E. faecalis [4, 14]: 16 µg/mL; MIC S. aureus [5, 14]: 8 µg/mL; MIC E. coli [6, 14]: 16 µg/mL; concentrations inhibiting formation of SE biofilm (MBFIC range) [8]: 8 to 16 µg/mL
CCCCCCCCCCCC(=O)N[C@@H](CCCCN)C(=O)N[C@@H](CCCCN)C(=O)N[C@@H](CSSC[C@H](NC(=O)[C@H](CCCCN)NC(=O)[C@H](CCCCN)NC(=O)CCCCCCCCCCC)C(N)=O)C(N)=O [Lipopeptide 1, C12-KKC-NH2] (I: Lauroyl-Lys-Lys-Cys-NH2 / II: Lauroyl-Lys-Lys-Cys-NH2; disulfide I:3-II:3) | 2 (≈ 1.79 µM) | 32 (≈ 28.7 µM) | – | 4 (≈ 3.59 µM) | 8 (≈ 7.17 µM) | 16 (≈ 14.3 µM) | 38.6 | 3.10 | 16 µg/mL | 8 µg/mL | 128 µg/mL | 512 µg/mL | >512/>512 μg/mL | >512/>512 μg/mL | 64 µg/mL | 16 µg/mL | 32/32 μg/mL | 32/32 μg/mL | 128/128 μg/mL | 128/128 μg/mL | concentrations inhibiting formation of SE biofilm (MBFIC range) [8]: 8 to 16 µg/mL
CCCCCCCCCCCCCCCC(=O)N[C@@H](CCCCN)C(=O)NCC(=O)N[C@@H](CCCCN)C(N)=O [Lipopeptide 5, C16-KGK-NH2] (Palmitoyl-Lys-Gly-Lys-NH2) | 32 (≈ 56.3 µM) | 256 (≈ 450 µM) | 512 (≈ 900 µM) | 32 (≈ 56.3 µM) | 64 (≈ 113 µM) | 16 (≈ 28.1 µM) | 43.7 | 3.95 | 64 µg/mL | 32 µg/mL | 256 µg/mL | 512 µg/mL | >512/512 μg/mL | >512/512 μg/mL | 64/64 μg/mL | 64/64 μg/mL | 32/32 μg/mL | 32/32 μg/mL | 128 µg/mL | 64 µg/mL | –
CCCCCCCCCCCCCCCC(=O)N[C@@H](CCCCN)C(=O)N[C@@H](CCCCN)C(=O)N[C@@H](CCCCN)C(N)=O [Lipopeptide 7, C16-KKK-NH2] | 16 (≈ 25 µM) | 64 (≈ 100 µM) | 256 (≈ 400 µM) | 16 (≈ 25 µM) | 64 (≈ 100 µM) | 32 (≈ 50 µM) | 37.9 | 2.98 | 32 µg/mL | 8 µg/mL | 512/512 μg/mL | 512/512 μg/mL | 256 µg/mL | 512 µg/mL | 64/64 μg/mL | 64/64 μg/mL | 32/32 μg/mL | 32/32 μg/mL | 32 µg/mL | 64 µg/mL | –
